Experimental data from patent US10154974B1, “Use of abscisic acid for the prevention and treatment of malaria” (The Regents of the University of California, priority 2015, dated 2018).

What was measured:
TAK = TAK phosphorylation in mosquito midgut; format: in vivo, Anopheles stephensi; conditions: ABA-supplemented parasite-fed mosquito midguts
Method: FIG. 11A-D illustrate that ABA decreases P. falciparum infection by increasing TAK phosphorylation. […] Each dot represents one replicate of 15 pooled midguts. […] Phosphorylated TAK levels were analyzed by one sample t-test, NOS expression by Wilcoxon matched-pairs signed rank test, and infection prevalence by Fisher's exact test. * p<0.05.

Complete blood counts = format: in vivo, mice
Method: FIG. 19A-C through FIG. 28A-B and Tables 6-1 through 6-4 support the use of ABA for treating Plasmodium-infected mammalian subjects. In the following tables, 4-5 mice were used per treatment, and data were analyzed by unpaired t-test. […] Abbreviations for Tables 6-3 and 6-4 are as follows: WBC=white blood cells, RBCs=red blood cells, MCV=mean corpuscular volume, MCH=mean corpuscular hemoglobin, MCHC=mean corpuscular hemoglobin concentration, RDW=red blood cell distribution width, MPV=mean platelet volume.

P. yoelii 17XNL = P. yoelii 17XNL parasitemia in C57Bl/6 and casp1-/- mice; format: in vivo
Method: Daily parasitemia of three separate cohorts of mice with and without ABA supplementation. 3 to 5 mice were used per treatment in each infection. Data were analyzed by one-sided, unpaired t-test. # p<0.1, * p<0.05, ** p<0.005.
FIG. 28A-B illustrate that ABA has no effect on parasitemia in caspase-1 knockout mice. […] 4-5 mice were used per treatment group. Data were analyzed by unpaired t-test. # p<0.1 * p<0.05.

defensin = experiment: Defensin mRNA levels in mosquito midgut; format: in vivo, Anopheles stephensi; conditions: 100 nM ABA, 4 hours post-feeding
Method: For mosquito immune gene expression, 20 midguts were dissected from mosquitoes in each treatment group at 1, 2, 4, 6, 8 and 24 hours post-feeding. Midguts were sonicated and stored in Trizol at −20° C. for up to a week before RNA was extracted according to manufacturer's instructions. cDNA synthesis was carried out using QantiTect Reverse Transcription Kit (Qiagen) and 200 ng of cDNA used per reaction for qRT-PCR with Sybr Green (Applied Biosystems). Fold changes in expression levels were calculated using the comparative threshold cycle method. Data were normalized to the housekeeping gene ribosomal protein S7 and to the control treatment. Primers and cycling conditions for AsNOS, defensin, LRIM, TEP1, and APL1 were as previously described (Hauck E S, et al. Microbes Infect. 2013; 15:775-87). […] Samples were analyzed in triplicate with 250 ng of cDNA per reaction to confirm uniformity of amplification. […] All expression data were analyzed by one sample t-test.
Transcript levels of a panel of immune genes previously described to play a role in the mosquito immune response to malaria parasites were examined. […] Mosquitoes were provided with a P. falciparum-infected bloodmeal supplemented with 100 nM ABA or with an equivalent volume of diluent as control, then analyzed at 1-24 hours post feeding.

[1] = system: inflammatory bowel disease (IBD); conditions: ABA supplementation; cited from earlier work
[2] = system: prospero, escargot, ATG6, ATG8; experiment: Expression of midgut epithelial cell turnover genes; format: in vivo, Anopheles stephensi; conditions: P. falciparum-fed mosquito midguts
Method: Data are shown as fold changed compared to control-treated mosquitoes. Each dot represents one replicate of 10 pooled midguts. Data were analyzed by one sample t-test. * p<0.05. nd indicates the prospero was not detectable at 72 or 96 hours.

[3] = ABA extraction from mouse plasma and quantification by ELISA; format: in vivo, mice
Method: Mice were euthanized on day 7 post-infection. Blood was collected by heart puncture, spun at 8,000 rpm for 8 minutes and the plasma collected for ABA quantification. Livers and spleens were collected, retained in 10% formalin for 24 hours and then stored in 70% ethanol before sectioning and staining with hematoxylin and eosin. Liver sections were blindly scored on a scale from 0 to 3 for pigment levels, Kupffer cell density, portal tract inflammation, hemozoin deposition, extramedullary hematopoiesis, sinusoidal leukocyte density, sinusoidal adherence of leukocytes, and presence of microabscesses. Spleen sections were blindly scored on a scale from 0 to 3 for hyperplasia, extramedullary hematopoiesis, pigment, and levels of histiocytes and neutrophils. Pathology scores of control and treated mice were analyzed by unpaired t-test.
ABA was extracted from mouse plasma as described (Engelberth, J Vis Exp, 2009, 28:1127). Briefly, 50 μL of plasma was added to 200 μL extraction buffer (1-propanol:H2O:concentrated HCL at a 2:1:0.002 volume ratio) and vortexed. […] Dried samples were re-eluted in 100% methanol and ABA levels determined using the Phytodetek Abscisic Acid ELISA kit (Agdia) according to the manufacturer's instructions. ABA levels in the plasma of control and ABA-supplemented mice, 4-5 per group, were analyzed by Mann Whitney test.

[4] = P. yoelii infection, day 11 post-infection

In the case of CC1=CC(=O)CC(C)(C)[C@@]1(O)/C=C/C(C)=C\C(=O)O (racemic) [ABA, (2Z,4E)-5-[(1S)-1-hydroxy-2,6,6-trimethyl-4-oxocyclohex-2-en-1-yl]-3-methylpenta-2,4-dienoic acid], the TAK phosphorylation (TAK) is reported as “increasing”, the “percentage of basophils in whole blood” value (Complete blood counts; [4]) is reported as “partially rescues decrease” and the “percentage of eosinophils in whole blood” value (Complete blood counts; [4]) is reported as “partially rescues decrease”. The “% RDW, Mean” value (Complete blood counts; P. yoelii-infected mice) was 34.95%, the “% hematocrit, Mean” value (Complete blood counts; P. yoelii-infected mice) was 21.00% and the “% lymphocytes, Mean” value (Complete blood counts; P. yoelii-infected mice) was 69.22%. For the same molecule, the “% monocytes, Mean” value (Complete blood counts; P. yoelii-infected mice) was 5.31%, the “% neutrophils, Mean” value (Complete blood counts; P. yoelii-infected mice) was 22.8% and the “MCHC, Mean” value (Complete blood counts; P. yoelii-infected mice) was 34.73 g/dL. For the same molecule, the “MCV, Mean” value (Complete blood counts; P. yoelii-infected mice) was 55.20 fL, the “MPV, Mean” value (Complete blood counts; P. yoelii-infected mice) was 6.23 fL and the “RBCs, Mean” value (Complete blood counts; P. yoelii-infected mice) was 3.83 M/ul. For the same molecule, the “WBC, Mean” value (Complete blood counts; P. yoelii-infected mice) was 31.90 K/uL, the “hemoglobin, Mean” value (Complete blood counts; P. yoelii-infected mice) was 7.28 g/dL and the “platelets, Mean” value (Complete blood counts; P. yoelii-infected mice) was 234.3 K/ul. For the same molecule, the complete blood counts (Complete blood counts; uninfected and P. yoelii-infected mice) was “no effect”, the “% RDW, Mean” value (Complete blood counts; uninfected mice) was 17.02% and the “% hematocrit, Mean” value (Complete blood counts; uninfected mice) was 38.48%. The “% lymphocytes, Mean” value (Complete blood counts; uninfected mice) was 66.56%, the “% monocytes, Mean” value (Complete blood counts; uninfected mice) was 11.71% and the “% neutrophils, Mean” value (Complete blood counts; uninfected mice) was 17.53%. The “MCHC, Mean” value (Complete blood counts; uninfected mice) was 32.72 g/dL, the “MCV, Mean” value (Complete blood counts; uninfected mice) was 43.14 fL and the “MPV, Mean” value (Complete blood counts; uninfected mice) was 5.74 fL. The “RBCs, Mean” value (Complete blood counts; uninfected mice) was 8.94 M/ul, the “WBC, Mean” value (Complete blood counts; uninfected mice) was 5.73 K/uL and the “hemoglobin, Mean” value (Complete blood counts; uninfected mice) was 12.56 g/dL. For the same molecule, the “platelets, Mean” value (Complete blood counts; uninfected mice) was 573.0 K/ul, the parasitemia (P. yoelii 17XNL; C57Bl/6 mice, three cohorts) was “significantly reduces” and the parasitemia (P. yoelii 17XNL; caspase-1 knockout mice) was “no effect”. For the same molecule, the “defensin mRNA levels” value (defensin) was “increase”, the “epithelial erosion and leukocyte infiltration” value [1] was “reduced” and the “expression of genes involved in midgut epithelial cell turnover” value [2] was “reduces expression”. For the same molecule, the “increase of ABA levels in plasma” value ([3]; P. yoelii infection, vs non-supplemented infected mice) was “over 6 fold” and the “ABA levels in plasma” value ([3]; oral supplementation, absence of infection) was “did not alter”.
